# Experimental data taken from patent publication US20220162167A1, “SUBSTITUTED BICYCLIC AND TETRACYCLIC QUINONES AND USE THEREOF AS ANTI-CANCER AGENTS” (THE REGENTS OF THE UNIVERSITY OF MICHIGAN, priority 2019, published 2022).
# Tests used:
# Format in all cases: cell-based
# HOP-92 = experiment: NCI60 growth inhibition, HOP-92; conditions: Non-Small Cell Lung Cancer
# Experimental: (§1) Representative compounds were tested in 60 cell lines (NCI60) at the National Cancer Institute, Developmental Therapeutics Program.
# (§2) Representative compounds were tested in a panel of 60 cancer cells (NCI 60) at the National Cancer Institute. Growth inhibition are shown in table 2, table 3, table 4, table 5, and FIG. 1, FIG. 2, FIG. 3, FIG. 4, FIG. 5.
# HCC-2998 = experiment: NCI60 growth inhibition, HCC-2998; conditions: Colon Cancer
# Experimental: as §1, §2
# A498 = experiment: NCI60 growth inhibition, A498; conditions: Renal Cancer; further: test concentration or dose not given here
# Experimental: as §1, §2
# ACHN = experiment: NCI60 growth inhibition, ACHN; conditions: Renal Cancer
# Experimental: as §1, §2
# MOLT-4 = experiment: NCI60 growth inhibition, MOLT-4; conditions: Leukemia
# Experimental: as §1, §2
# OVCAR-3 = experiment: NCI60 growth inhibition, OVCAR-3; conditions: Ovarian Cancer
# Experimental: as §1, §2
# M14 = experiment: NCI60 growth inhibition, M14; conditions: Melanoma
# Experimental: as §1, §2
# SF-295 = experiment: NCI60 growth inhibition, SF-295; conditions: CNS Cancer; further: test concentration or dose not given here
# Experimental: as §1, §2
# MDA-MB-468 = experiment: NCI60 growth inhibition, MDA-MB-468; conditions: Breast Cancer; further: test concentration or dose not given here
# Experimental: as §1, §2
# SN12C = experiment: NCI60 growth inhibition, SN12C; conditions: Renal Cancer
# Experimental: as §1, §2
# SR = experiment: NCI60 growth inhibition, SR; conditions: Leukemia
# Experimental: as §1, §2
# HL-60(TB) = experiment: NCI60 growth inhibition, HL-60(TB); conditions: Leukemia
# Experimental: as §1, §2
# HOP-62 = experiment: NCI60 growth inhibition, HOP-62; conditions: Non-Small Cell Lung Cancer; further: test concentration or dose not given here
# Experimental: as §1, §2
# SK-MEL-2 = experiment: NCI60 growth inhibition, SK-MEL-2; conditions: Melanoma; further: test concentration or dose not given here
# Experimental: as §1, §2
# SNB-75 = experiment: NCI60 growth inhibition, SNB-75; conditions: CNS Cancer; further: test concentration or dose not given here
# Experimental: as §1, §2
# SF-539 = experiment: NCI60 growth inhibition, SF-539; conditions: CNS Cancer
# Experimental: as §1, §2
# HS 578T = experiment: NCI60 growth inhibition, HS 578T; conditions: Breast Cancer
# Experimental: as §1, §2
# CCRF-CEM = experiment: NCI60 growth inhibition, CCRF-CEM; conditions: Leukemia
# Experimental: as §1, §2
# BT-549 = experiment: NCI60 growth inhibition, BT-549; conditions: Breast Cancer
# Experimental: as §1, §2
# UO-31 = experiment: NCI60 growth inhibition, UO-31; conditions: Renal Cancer
# Experimental: as §1, §2
# SK-OV-3 = experiment: NCI60 growth inhibition, SK-OV-3; conditions: Ovarian Cancer
# Experimental: as §1, §2
# MDA-MB-231/ATCC = experiment: NCI60 growth inhibition, MDA-MB-231/ATCC; conditions: Breast Cancer
# Experimental: as §1, §2
# NCI-H322M = experiment: NCI60 growth inhibition, NCI-H322M; conditions: Non-Small Cell Lung Cancer
# Experimental: as §1, §2
# UACC-62 = experiment: NCI60 growth inhibition, UACC-62; conditions: Melanoma; further: test concentration or dose not given here
# Experimental: as §1, §2
# PC-3 = experiment: NCI60 growth inhibition, PC-3; conditions: Prostate Cancer
# Experimental: as §1, §2
# MCF7 = experiment: NCI60 growth inhibition, MCF7; conditions: Breast Cancer
# Experimental: as §1, §2
# SNB-19 = experiment: NCI60 growth inhibition, SNB-19; conditions: CNS Cancer; further: test concentration or dose not given here
# Experimental: as §1, §2
# NCI-H226 = experiment: NCI60 growth inhibition, NCI-H226; conditions: Non-Small Cell Lung Cancer; further: test concentration or dose not given here
# Experimental: as §1, §2
# CAKI-1 = experiment: NCI60 growth inhibition, CAKI-1; conditions: Renal Cancer; further: test concentration or dose not given here
# Experimental: as §1, §2
# EKVX = experiment: NCI60 growth inhibition, EKVX; conditions: Non-Small Cell Lung Cancer
# Experimental: as §1, §2
# U251 = experiment: NCI60 growth inhibition, U251; conditions: CNS Cancer
# Experimental: as §1, §2
# SW-620 = experiment: NCI60 growth inhibition, SW-620; conditions: Colon Cancer; further: test concentration or dose not given here
# Experimental: as §1, §2
# HCT-116 = experiment: NCI60 growth inhibition, HCT-116; conditions: Colon Cancer
# Experimental: as §1, §2
# LOX IMVI = experiment: NCI60 growth inhibition, LOX IMVI; conditions: Melanoma
# Experimental: as §1, §2
# TK-10 = experiment: NCI60 growth inhibition, TK-10; conditions: Renal Cancer
# Experimental: as §1, §2
# SF-268 = experiment: NCI60 growth inhibition, SF-268; conditions: CNS Cancer; further: test concentration or dose not given here
# Experimental: as §1, §2
# 786-0 = experiment: NCI60 growth inhibition, 786-0; conditions: Renal Cancer
# Experimental: as §1, §2
# HT29 = experiment: NCI60 growth inhibition, HT29; conditions: Colon Cancer
# Experimental: as §1, §2
# UACC-257 = experiment: NCI60 growth inhibition, UACC-257; conditions: Melanoma; further: test concentration or dose not given here
# Experimental: as §1, §2
# OVCAR-4 = experiment: NCI60 growth inhibition, OVCAR-4; conditions: Ovarian Cancer; further: test concentration or dose not given here
# Experimental: as §1, §2
# SK-MEL-5 = experiment: NCI60 growth inhibition, SK-MEL-5; conditions: Melanoma
# Experimental: as §1, §2
# K-562 = experiment: NCI60 growth inhibition, K-562; conditions: Leukemia
# Experimental: as §1, §2
# MDA-MB-435 = experiment: NCI60 growth inhibition, MDA-MB-435; conditions: Melanoma
# Experimental: as §1, §2
# IGROV1 = experiment: NCI60 growth inhibition, IGROV1; conditions: Ovarian Cancer
# Experimental: as §1, §2
# HCT-15 = experiment: NCI60 growth inhibition, HCT-15; conditions: Colon Cancer; further: test concentration or dose not given here
# Experimental: as §1, §2
# KM12 = experiment: NCI60 growth inhibition, KM12; conditions: Colon Cancer; further: test concentration or dose not given here
# Experimental: as §1, §2
# SK-MEL-28 = experiment: NCI60 growth inhibition, SK-MEL-28; conditions: Melanoma
# Experimental: as §1, §2
# RPMI-8226 = experiment: NCI60 growth inhibition, RPMI-8226; conditions: Leukemia
# Experimental: as §1, §2
# DU-145 = experiment: NCI60 growth inhibition, DU-145; conditions: Prostate Cancer
# Experimental: as §1, §2
# NCI-H460 = experiment: NCI60 growth inhibition, NCI-H460; conditions: Non-Small Cell Lung Cancer
# Experimental: as §1, §2
# NCI-H522 = experiment: NCI60 growth inhibition, NCI-H522; conditions: Non-Small Cell Lung Cancer
# Experimental: as §1, §2
# NCI/ADR-RES = experiment: NCI60 growth inhibition, NCI/ADR-RES; conditions: Ovarian Cancer
# Experimental: as §1, §2
# NCI-H23 = experiment: NCI60 growth inhibition, NCI-H23; conditions: Non-Small Cell Lung Cancer
# Experimental: as §1, §2
# A549/ATCC = experiment: NCI60 growth inhibition, A549/ATCC; conditions: Non-Small Cell Lung Cancer
# Experimental: as §1, §2
# COLO 205 = experiment: NCI60 growth inhibition, COLO 205; conditions: Colon Cancer
# Experimental: as §1, §2
# T-47D = experiment: NCI60 growth inhibition, T-47D; conditions: Breast Cancer
# Experimental: as §1, §2
# OVCAR-5 = experiment: NCI60 growth inhibition, OVCAR-5; conditions: Ovarian Cancer
# Experimental: as §1, §2
# MALME-3M = experiment: NCI60 growth inhibition, MALME-3M; conditions: Melanoma
# Experimental: as §1, §2
compound,measurement,setting,value
"CN1CCN(c2cc(F)c(NC3=C(Cl)C(=O)c4ncccc4C3=O)c(F)c2)CC1 [Compound 1, 7-chloro-6-((2,6-difluoro-4-(4-methylpiperazin-1-yl)phenyl)amino)quinoline-5,8-dione]",Growth inhibition (% control) GIPRCNT,HOP-92,−79.9407 % control
same,Growth inhibition (% control) GIPRCNT,HCC-2998,61.85 % control
same,Growth inhibition (% control) GIPRCNT,A498,80.11 % control
same,Growth inhibition (% control) GIPRCNT,ACHN,−93.058 % control
same,Growth inhibition (% control) GIPRCNT,MOLT-4,−22.6883 % control
same,Growth inhibition (% control) GIPRCNT,OVCAR-3,−98.2241 % control
same,Growth inhibition (% control) GIPRCNT,M14,−40.5376 % control
same,Growth inhibition (% control) GIPRCNT,SF-295,78.81 % control
same,Growth inhibition (% control) GIPRCNT,MDA-MB-468,−73.911 % control
same,Growth inhibition (% control) GIPRCNT,SN12C,−97.4828 % control
same,Growth inhibition (% control) GIPRCNT,SR,−0.8134 % control
same,Growth inhibition (% control) GIPRCNT,HL-60(TB),−26.4294 % control
same,Growth inhibition (% control) GIPRCNT,HOP-62,83.28 % control
same,Growth inhibition (% control) GIPRCNT,SK-MEL-2,−49.6035 % control
same,Growth inhibition (% control) GIPRCNT,SNB-75,38.01 % control
same,Growth inhibition (% control) GIPRCNT,SF-539,−25.0889 % control
same,Growth inhibition (% control) GIPRCNT,HS 578T,−16.4793 % control
same,Growth inhibition (% control) GIPRCNT,CCRF-CEM,−18.2389 % control
same,Growth inhibition (% control) GIPRCNT,BT-549,80.52 % control
same,Growth inhibition (% control) GIPRCNT,UO-31,−100 % control
same,Growth inhibition (% control) GIPRCNT,SK-OV-3,82.67 % control
same,Growth inhibition (% control) GIPRCNT,MDA-MB-231/ATCC,−31.9795 % control
same,Growth inhibition (% control) GIPRCNT,NCI-H322M,101.8249 % control
same,Growth inhibition (% control) GIPRCNT,UACC-62,−45.6278 % control
same,Growth inhibition (% control) GIPRCNT,PC-3,11.83 % control
same,Growth inhibition (% control) GIPRCNT,MCF7,−58.1831 % control
same,Growth inhibition (% control) GIPRCNT,SNB-19,96.33 % control
same,Growth inhibition (% control) GIPRCNT,NCI-H226,85.32 % control
same,Growth inhibition (% control) GIPRCNT,CAKI-1,−85.6094 % control
same,Growth inhibition (% control) GIPRCNT,EKVX,−82.6636 % control
same,Growth inhibition (% control) GIPRCNT,U251,−9.877 % control
same,Growth inhibition (% control) GIPRCNT,SW-620,−76.6429 % control
same,Growth inhibition (% control) GIPRCNT,HCT-116,−69.7462 % control
same,Growth inhibition (% control) GIPRCNT,LOX IMVI,−70.2674 % control
same,Growth inhibition (% control) GIPRCNT,TK-10,8.462 % control
same,Growth inhibition (% control) GIPRCNT,SF-268,48.73 % control
same,Growth inhibition (% control) GIPRCNT,786-0,−72.0362 % control
same,Growth inhibition (% control) GIPRCNT,HT29,11.1525 % control
same,Growth inhibition (% control) GIPRCNT,UACC-257,−62.2412 % control
same,Growth inhibition (% control) GIPRCNT,OVCAR-4,−99.2407 % control
same,Growth inhibition (% control) GIPRCNT,SK-MEL-5,−91.7268 % control
same,Growth inhibition (% control) GIPRCNT,K-562,−0.8345 % control
same,Growth inhibition (% control) GIPRCNT,MDA-MB-435,−75.7981 % control
same,Growth inhibition (% control) GIPRCNT,IGROV1,−90.4429 % control
same,Growth inhibition (% control) GIPRCNT,HCT-15,−8.531 % control
same,Growth inhibition (% control) GIPRCNT,KM12,82.37 % control
same,Growth inhibition (% control) GIPRCNT,SK-MEL-28,−55.0718 % control
same,Growth inhibition (% control) GIPRCNT,RPMI-8226,−20.7257 % control
same,Growth inhibition (% control) GIPRCNT,DU-145,−67.5681 % control
same,Growth inhibition (% control) GIPRCNT,NCI-H460,9.912 % control
same,Growth inhibition (% control) GIPRCNT,NCI-H522,−59.746 % control
same,Growth inhibition (% control) GIPRCNT,NCI/ADR-RES,37.87 % control
same,Growth inhibition (% control) GIPRCNT,NCI-H23,−61.2055 % control
same,Growth inhibition (% control) GIPRCNT,A549/ATCC,74.56 % control
same,Growth inhibition (% control) GIPRCNT,COLO 205,33.98 % control
same,Growth inhibition (% control) GIPRCNT,T-47D,−32.5382 % control
same,Growth inhibition (% control) GIPRCNT,OVCAR-5,−59.8079 % control
same,Growth inhibition (% control) GIPRCNT,MALME-3M,−96.0656 % control
